The record followed here is ChEMBL document CHEMBL1146932, “A series of 23,24-dihydrodiscodermolide analogues with simplified lactone regions” (2006).

The term GI50 denotes the concentration that inhibits growth by half. Low readings indicate greater sensitivity of the cells, high ones lower sensitivity of the cells.

Format in all cases: functional
Holding throughout (settings): Homo sapiens

One assay deals with MCF7. Description: Antiproliferative activity against MCF7 cell line.
Another assay concerns NCI/ADR-RES. Description: Antiproliferative activity against NCI/ADR cell line.
For assay [1], the system named is A549. The experiment in a line: Antiproliferative activity against A549 cell line.
Assay [2] deals with A549. Description: Antiproliferative activity against A549t12 cell line.
Assay [3] deals with CCRF-CEM. Description: Antiproliferative activity against resistant CCRF-CEM/PTX cell line.
The subject of assay [4] is CCRF-CEM. Description: Antiproliferative activity against resistant CCRF-CEM/VBL cell line.
Assay [5] deals with CCRF-CEM. The experiment in a line: Antiproliferative activity against resistant CCRF-CEM/VP16 cell line.
The subject of assay [6] is CCRF-CEM. Description: Antiproliferative activity against CCRF-CEM cell line.

Consider `CC/C=C\[C@H](C)[C@H](OC(N)=O)[C@@H](C)[C@H](O)[C@@H](C)C/C(C)=C\[C@H](C)[C@@H](O)[C@@H](C)/C=C\[C@@H](O)C[C@@H]1OC(=O)[C@H](C)[C@@H](O)[C@H]1C`, for which the GI50 in the assay on MCF7 was determined as 6.2 nM; in the assay on NCI/ADR-RES it was 190 nM; in the assay with A549 [1] it was 7 nM.
As to `CC/C=C\[C@H](C)[C@H](OC(N)=O)[C@@H](C)[C@H](O)[C@@H](C)C/C(C)=C\[C@H](C)[C@@H](O)[C@@H](C)/C=C\[C@H](O)C[C@@H]1CCC(=O)O1`, the GI50 in the assay on MCF7 turned out to be 2000 nM; in the assay on NCI/ADR-RES, 10000 nM; in the assay with A549 [1], 4000 nM; with A549 [2] it was 10000 nM.
With `CC/C=C\[C@H](C)[C@H](OC(N)=O)[C@@H](C)[C@H](O)[C@@H](C)C/C(C)=C\[C@H](C)[C@@H](O)[C@@H](C)/C=C\[C@@H](O)C[C@@H]1OC(=O)[C@H](C)C[C@H]1C`, the GI50 with CCRF-CEM [3] was 65 nM; in the assay with CCRF-CEM [4], 209 nM; in the assay with CCRF-CEM [5], 12 nM; in the assay on MCF7, 5.8 nM; in the assay with NCI/ADR-RES, 140 nM; in the assay on A549 [1], 11 nM. For the same molecule, the GI50 in the assay with A549 [2] was found to be 50 nM; in the assay on CCRF-CEM [6] it was 8.6 nM.
`CC/C=C\[C@H](C)[C@H](OC(N)=O)[C@@H](C)[C@H](O)[C@@H](C)C/C(C)=C\[C@H](C)[C@@H](O)[C@@H](C)/C=C\[C@@H](O)C[C@H](O)[C@H](C)CO`: the GI50 with MCF7 was found to be 1000 nM; in the assay with NCI/ADR-RES, 10000 nM; with A549 [1], 3000 nM; in the assay on A549 [2] it was 5000 nM.
Regarding `CC/C=C\[C@H](C)[C@H](OC(N)=O)[C@@H](C)[C@H](O)[C@@H](C)C/C(C)=C\[C@H](C)[C@@H](O)[C@@H](C)/C=C\[C@@H](O)C[C@H]1CCC(=O)O1`, the concentration for 50% growth inhibition (GI50) with CCRF-CEM [3] was 285 nM; in the assay with CCRF-CEM [4], 3810 nM; in the assay on CCRF-CEM [5], 7.1 nM; with MCF7, 6.4 nM; with NCI/ADR-RES, 730 nM; in the assay with A549 [1], 46 nM. Besides, the GI50 was 63 nM in the assay on A549 [2] and 6.5 nM in the assay on CCRF-CEM [6].
With `CC/C=C\[C@H](C)[C@H](OC(N)=O)[C@@H](C)[C@H](O)[C@@H](C)C/C(C)=C\[C@H](C)[C@@H](O)[C@@H](C)/C=C\[C@@H](O)C[C@@H]1OC(=O)NC[C@H]1C`, the GI50 with MCF7 stood at 110 nM; in the assay on NCI/ADR-RES, 10000 nM; with A549 [1], 520 nM; in the assay with A549 [2], 1000 nM.
Taken in the same sequence, the figures for `CC/C=C\[C@H](C)[C@H](OC(N)=O)[C@@H](C)[C@H](O)[C@@H](C)C/C(C)=C\[C@H](C)[C@@H](O)[C@@H](C)/C=C\[C@@H](O)C[C@H](O)[C@H](C)C[C@H](C)C(=O)OC` were 1000 nM, 10000 nM, 4000 nM and 4000 nM.
`CC/C=C\[C@H](C)[C@H](OC(N)=O)[C@@H](C)[C@H](O)[C@@H](C)C/C(C)=C\[C@H](C)[C@@H](O)[C@@H](C)/C=C\[C@@H](O)C[C@@H]1OC(=O)[C@H](C)[C@@H](OC)[C@H]1C`: the GI50 amounted to 79 nM in the assay with CCRF-CEM [3]; 416 nM in the assay on CCRF-CEM [4]; 8.4 nM in the assay on CCRF-CEM [5]; 3.8 nM with MCF7; 250 nM in the assay with NCI/ADR-RES; 6.5 nM in the assay with A549 [1]. Further, the values for the GI50 in the assay with A549 [2] and in the assay on CCRF-CEM [6] were 12 nM and 4.4 nM, respectively.
Turning to `C=C/C=C\[C@H](C)[C@H](OC(N)=O)[C@@H](C)[C@H](O)[C@@H](C)C/C(C)=C\[C@H](C)[C@@H](O)[C@@H](C)/C=C\[C@@H](O)C[C@@H]1OC(=O)[C@H](C)[C@@H](O)[C@H]1C` [DISERMOLIDE], the GI50 in the assay on CCRF-CEM [3] is 92 nM; with CCRF-CEM [4], 158 nM; with CCRF-CEM [5], 52 nM; in the assay on MCF7, 28 nM; in the assay on NCI/ADR-RES it was 240 nM; in the assay on A549 [1], 22 nM. Also, the figures for the GI50 in the assay with A549 [2] and with CCRF-CEM [6] were 30 nM and 16 nM, respectively.
